Earlier results in PMC6261507 (ACS applied nano materials, 2018).

System: integrin αvβ3

Arg-Gly-Asp [RGD, arginine-glycine-aspartic acid]
affinity towards integrin αvβ3: nanomolar affinity
